Laboratory results: the supplement of paper PMC8253809

Columns and labels:
DIPGX29 [1] = H3.3 K27M diffuse intrinsic pontine glioma line; assay: maximal growth inhibition (yFin) relative to DMSO / staurosporine; higher = more efficacious
In short: (§1)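 A pin tool was used to add a 10-point threefold dilution series (mean top concentration 35 μM), in triplicate, to patient-derived pHGG/DIPG cell lines and astrocyte controls seeded on 384-well plates coated with 1% Geltrex. After 7 days at 37 °C and 5% CO2 (3 days for iAstro), CellTiter-Glo luminescence was log2-transformed, normalised on each plate to % activity relative to negative (solvent) and positive control wells, and pooled. EC50 and maximal response (yFin) were read from the three- or four-parameter log-logistic fit with the lowest AICc.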

DIPGX37 [2] = H3.3 K27M diffuse intrinsic pontine glioma line; assay: as above
In short: as §1

DIPGX9 [3] = diffuse intrinsic pontine glioma line; assay: as above
In short: as §1

HGGX2 [4] = paediatric high-grade glioma line; assay: as above
In short: as §1

HGGX39 [5] = paediatric high-grade glioma line; assay: as above
In short: as §1

HGGX42 [6] = H3.3 G34R paediatric high-grade glioma line; assay: as above
In short: as §1

HGGX6 [7] = H3.3 G34R paediatric high-grade glioma line; assay: as above
In short: as §1

SUDIPGIV [8] = diffuse intrinsic pontine glioma line; assay: as above
In short: as §1

SUDIPGVI [9] = diffuse intrinsic pontine glioma line; assay: as above
In short: as §1

SUDIPGXIII [10] = diffuse intrinsic pontine glioma line; assay: as above
In short: as §1

SUDIPGXIX [11] = diffuse intrinsic pontine glioma line; assay: as above
In short: as §1

SUDIPGXVII [12] = diffuse intrinsic pontine glioma line; assay: as above
In short: as §1

SUDIPGXXI [13] = diffuse intrinsic pontine glioma line; assay: as above
In short: as §1

DIPGX29 [14] = assay: area under dose-response curve of % growth inhibition (log2 RLU vs DMSO / staurosporine), 1e-11 to 1e-4 M (% x log10 M); higher = more growth inhibition
In short: (§2)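 A 10-point threefold dilution series, mean top concentration 35 μM, was applied in triplicate to patient-derived pHGG/DIPG lines and astrocytes on 1% Geltrex-coated 384-well plates for 7 days (3 days for iAstro) at 37 °C, 5% CO2. Per-plate % activity between solvent and positive controls was calculated from log2-transformed CellTiter-Glo luminescence. Area under the curve followed from the trapezoid rule on a log-logistic fit, or on a smoothing spline when the sigmoid fit failed.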

DIPGX37 [15] = assay: as above
In short: as §2

DIPGX7 = H3.3 K27M diffuse intrinsic pontine glioma line; assay: as above
In short: as §2

DIPGX9 [16] = assay: as above
In short: as §2

HABS = astrocyte control; assay: as above
In short: as §2

HGGX2 [17] = assay: as above
In short: as §2

HGGX39 [18] = assay: as above
In short: as §2

HGGX42 [19] = assay: as above
In short: as §2

HGGX6 [20] = assay: as above
In short: as §2

SUDIPGIV [21] = assay: as above
In short: as §2

SUDIPGVI [22] = assay: as above
In short: as §2

SUDIPGXIII [23] = assay: as above
In short: as §2

SUDIPGXIX [24] = assay: as above
In short: as §2

SUDIPGXVII [25] = assay: as above
In short: as §2

SUDIPGXXI [26] = assay: as above
In short: as §2

iAstro = astrocyte control; assay: as above
In short: as §2

SMILES | maximal growth inhibition (DIPGX29 [1]) [%] | maximal growth inhibition (DIPGX37 [2]) [%] | maximal growth inhibition (DIPGX9 [3]) [%] | maximal growth inhibition (HGGX2 [4]) [%] | maximal growth inhibition (HGGX39 [5]) [%] | maximal growth inhibition (HGGX42 [6]) [%] | maximal growth inhibition (HGGX6 [7]) [%] | maximal growth inhibition (SUDIPGIV [8]) [%] | maximal growth inhibition (SUDIPGVI [9]) [%] | maximal growth inhibition (SUDIPGXIII [10]) [%] | maximal growth inhibition (SUDIPGXIX [11]) [%] | maximal growth inhibition (SUDIPGXVII [12]) [%] | maximal growth inhibition (SUDIPGXXI [13]) [%] | area under dose-response curve (DIPGX29 [14]) | area under dose-response curve (DIPGX37 [15]) | area under dose-response curve (DIPGX7) | area under dose-response curve (DIPGX9 [16]) | area under dose-response curve (HABS) | area under dose-response curve (HGGX2 [17]) | area under dose-response curve (HGGX39 [18]) | area under dose-response curve (HGGX42 [19]) | area under dose-response curve (HGGX6 [20]) | area under dose-response curve (SUDIPGIV [21]) | area under dose-response curve (SUDIPGVI [22]) | area under dose-response curve (SUDIPGXIII [23]) | area under dose-response curve (SUDIPGXIX [24]) | area under dose-response curve (SUDIPGXVII [25]) | area under dose-response curve (SUDIPGXXI [26]) | area under dose-response curve (iAstro)
C[C@@H](Oc1cc(-c2cnn(C3CCNCC3)c2)cnc1N)c1c(Cl)ccc(F)c1Cl [CRIZOTINIB] | 104 | 102 | 101 | 97.4 | 92.8 | 102 | 88.6 | 98.4 | 94.1 | 92.3 | 99.6 | 96.4 | 119 | 87.6 | 87.8 | 91.9 | 112 | 76.5 | 107 | 64 | 117 | 59.1 | 96.9 | 112 | 74.2 | 123 | 87 | 200 | 78
COc1ccc(-c2nc(N3CCOCC3)c3sc(CN(C)c4ncc(C(=O)NO)cn4)cc3n2)cn1 [CUDC-907] | 106 | 119 | 108 | 103 | 112 | 105 | 102 | 113 | 98 | 109 | 119 | 107 | 122 | 298 | 331 | 294 | 368 | 299 | 298 | 325 | 315 | 264 | 319 | 290 | 188 | 346 | 294 | 470 | 181
CN1CCCN(C(=O)c2cccc(-c3ccc(/C=C4/C(=O)Nc5ccc(Cl)cc54)o3)c2)CC1 [CX-6258] | 112 | 109 | 108 | 108 | 110 | 106 | 106 | 107 | 108 | 104 | 110 | 110 | 106 | 179 | 191 | 157 | 167 | 124 | 162 | 139 | 184 | 132 | 165 | 130 | 112 | 162 | 137 | 330 | 168
COc1cccc2c1C(=O)c1c(O)c3c(c(O)c1C2=O)C[C@@](O)(C(=O)CO)C[C@@H]3O[C@H]1C[C@H](N)[C@H](O)[C@H](C)O1 [DOXORUBICIN] | 102 | 86.8 | 99.9 | 61.1 | 101 | 96.5 | 86.1 | 97.8 | 89.1 | 87.7 | 97.2 | 95.8 | 95.8 | 169 | 210 | 213 | 293 | 210 | 168 | 174 | 260 | 147 | 255 | 159 | 170 | 294 | 195 | 420 | 78.3
CCCCc1oc2ccc(NS(C)(=O)=O)cc2c1C(=O)c1ccc(OCCCN(CCCC)CCCC)cc1 [DRONEDARONE] | 104 | 99.7 | 123 | 116 | 106 | 119 | 93.4 | 122 | 121 | 117 | 123 | 122 | 127 | 148 | 138 | 194 | 128 | 91.3 | 136 | 108 | 165 | 106 | 149 | 105 | 105 | 137 | 119 | 225 | 134
CCOC(=O)CCNc1cc(N2CCc3ccccc3CC2)nc(-c2ccccn2)n1 [GSK-J4] | 69.6 | 56.1 | 94.2 | 100 | 63.1 | 100 | 62.6 | 61.5 | 44.1 | 48.1 | 98.3 | 55.2 | 112 | 80.7 | 67.7 | 46.8 | 103 | 71.4 | 100 | 62.2 | 87.1 | 63.1 | 62 | 52.4 | 61.1 | 104 | 54.8 | 213 | 97.7
O=C(c1ccc(Nc2nccc(-c3cc4ccccc4s3)n2)cc1)N1CCC(N2CCCC2)CC1 [IKK 16] | 117 | 120 | 122 | 104 | 119 | 107 | 106 | 115 | 104 | 114 | 128 | 118 | 120 | 180 | 183 | 155 | 105 | 93.1 | 146 | 137 | 187 | 88.2 | 132 | 111 | 107 | 127 | 108 | 165 | 110
CC(C)C[C@H](NC(=O)CNC(=O)c1cc(Cl)ccc1Cl)B(O)O [IXAZOMIB] | 77.5 | 79.9 | 82.6 | 86 | 84.7 | 70.6 | 79.4 | 89.4 | 73.9 | 77.3 | 88.1 | 81 | 86.4 | 210 | 315 | 302 | 304 | 288 | 242 | 302 | 234 | 260 | 322 | 242 | 266 | 327 | 247 | 337 | 264
Cc1c(C2CCN(CCc3ccccc3)CC2)noc1-c1ccc(Cl)cc1 [L-741,742] | 82.8 | 101 | 22.2 | 42.8 | 84 | 74.2 | 69.7 | 77.7 | 44.4 | 22.9 | 27.2 | 34.3 | 106 | 100 | 93.6 | 118 | 30.3 | 25.7 | 35.6 | 96.9 | 90.7 | 83.5 | 91.7 | 36.1 | 21.9 | 22.6 | 40.3 | 145 | 41.1
C[C@@]12OC(=O)[C@]1([C@@H](O)[C@@H]1C=CCCC1)NC(=O)[C@@H]2CCCl [MARIZOMIB] | 32.8 | 99.7 | 101 | 98.7 | 96.6 | 62.8 | 55.2 | 119 | 103 | 28.3 | 94.2 | 40.4 | 109 | 100 | 254 | 251 | 302 | 149 | 337 | 241 | 163 | 135 | 407 | 331 | 75.8 | 229 | 108 | 422 | 375
Nc1ccccc1NC(=O)c1ccc(CNc2nccc(-c3cccnc3)n2)cc1 [MOCETINOSTAT] | 78.5 | 96 | 103 | 96.5 | 96.8 | 78 | 84.8 | 104 | 97.2 | 74.1 | 100 | 93 | 126 | 144 | 146 | 147 | 232 | 135 | 165 | 133 | 115 | 129 | 175 | 184 | 117 | 147 | 155 | 319 | 70.7
O=C(Nc1ccc([N+](=O)[O-])cc1Cl)c1cc(Cl)ccc1O [NICOLSAMIDE] | 78.2 | 81.9 | 94 | 93.8 | 96.9 | 87.9 | 71.9 | 92.4 | 74.1 | 84.2 | 89 | 88.7 | 110 | 123 | 142 | 153 | 150 | 116 | 119 | 115 | 129 | 85.2 | 146 | 109 | 167 | 142 | 141 | 232 | 49.6
